The target of this assay is T1, human RORgT (Homo sapiens, UniProt P51449).
T1 construct: expressed in transfected cells
T1 sequence (P51449 267-516): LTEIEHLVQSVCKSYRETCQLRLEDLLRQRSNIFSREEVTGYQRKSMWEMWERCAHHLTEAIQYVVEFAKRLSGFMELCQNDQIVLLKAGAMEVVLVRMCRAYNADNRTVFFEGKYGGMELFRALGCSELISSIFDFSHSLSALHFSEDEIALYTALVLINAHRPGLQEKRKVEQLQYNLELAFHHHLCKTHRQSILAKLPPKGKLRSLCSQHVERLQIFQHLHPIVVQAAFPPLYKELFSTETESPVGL
The experiment in a line: RORgT Gal4 Luciferase Reporter Gene Assay. In kind it is cell-based. Particulars: engineered Jurkat cells overexpressing RORgT (LBD or full length) fused with Gal4 Luc reporter; 18 hours at 37° C.; luminescence. The method, then:
RORgT Gal4 Luciferase Reporter Gene Assay
25 µL of cryopreserved Jurkat cells over expressing ligand binding domain (LBD) of RORgT (aa267-516, NM_005060) and Gal4 Luc, or full length of human RORgT and Gal4 Luc, were plated in 384-well solid white cell culture plates (PerkinElmer 6007899), with a density of 10,000 cells/well in RPMI 1640 cell culture media (Gibco 11875-085). The media contained 0.1% BSA, 10 mM HEPES (Gibco 15360-080), […] Sodium Pyruvate (Gibco 11360-040), […] Hygromycin B (Invitrogen 10687-010), and […] Blasticidin (Invitrogen R210-01).
100 nL of compound at varying concentrations in 3-fold serial dilution, with final concentrations ranging from 40 µM to 0.67 nM, were added to the cells using Labcyte Echo 550. The compound and the cells were incubated for 18 hours at 37° C. in a cell culture incubator. Cells were then lysed with 15 uL of Steady-Glo Luciferase Assay reagent (Promega EZ550), followed by centrifuging the assay plates at 1500 RPM for 1 minute. Subsequently, the plates were read on the Envision (PerkinElmer). The inhibition of constitutive activity of RORgT achieved by graded concentrations of compound was calculated as a percentage of the luminescence signal window reduction over a control compound.
A general note: Reporter assays use an easily measured gene product as a stand-in for the process of interest.
The EC50 is the concentration at which the effect is half-maximal. A lower EC50 goes with a more potent agent. For the compound `O=C(O)[C@H]1CC[C@H](C(=O)N2CC[C@@]3(S(=O)(=O)c4ccc(F)cc4)c4ccc(OCc5cc(F)ccc5Cl)cc4CC[C@@H]23)CC1` [Example 175, (1r,4r)-4-[(3aR,9bR)-7-[(2-chloro-5-fluorophenyl)methoxy]-9b-(4-fluorobenzenesulfonyl)-1H,2H,3H,3aH,4H,5H,9bH-benzo[e]indole-3-carbonyl]cyclohexane-1-carboxylic acid], it took 0.0095 µM to reach a half-maximal effect (EC50).

For the compound `O=C(C1CCS(=O)(=O)C1)N1CC[C@@]2(S(=O)(=O)c3ccc(F)cc3)c3ccc(OCc4c(F)cccc4C(F)(F)F)cc3CC[C@@H]12` (stereo partly drawn) [Example 187, 3-[(3aR,9bR)-7-{[2-fluoro-6-(trifluoromethyl)phenyl]methoxy}-9b-(4-fluorobenzenesulfonyl)-1H,2H,3H,3aH,4H,5H,9bH-benzo[e]indole-3-carbonyl]-1λ^6-thiolane-1,1-dione], it took 0.01 µM to reach a half-maximal effect (EC50).

`O=C(O)[C@H]1CC[C@H](C(=O)N2CC[C@@]3(S(=O)(=O)c4ccc(F)cc4)c4ccc(Cc5ccc(F)cc5)cc4CC[C@@H]23)CC1` [Example 40, (1r,4r)-4-[(3aR,9bR)-9b-(4-fluorobenzenesulfonyl)-7-[(4-fluorophenyl)methyl]-1H,2H,3H,3aH,4H,5H,9bH-benzo[e]indole-3-carbonyl]cyclohexane-1-carboxylic acid] returned a concentration giving a half-maximal response (EC50) of 0.0052 µM.

As for `C[C@]1(C(=O)O)CC[C@H](C(=O)N2CC[C@@]3(S(=O)(=O)c4ccc(F)cc4)c4ccc(OCc5c(F)cccc5C(F)(F)F)cc4CC[C@@H]23)CC1` [Example 25, (1r,4r)-4-[(3aR,9bR)-7-{[2-fluoro-6-(trifluoromethyl)phenyl]methoxy}-9b-(4-fluorobenzenesulfonyl)-1H,2H,3H,3aH,4H,5H,9bH-benzo[e]indole-3-carbonyl]-1-methylcyclohexane-1-carboxylic acid], the EC50 turned out to be 0.02 µM.

The compound `C[C@]1(C(=O)N2CC[C@@]3(S(=O)(=O)c4ccc(F)cc4)c4ccc(OCc5c(F)cccc5Cl)cc4CC[C@@H]23)CC[C@H](C(=O)O)CC1` [Example 9, (1R,4r)-4-((3aR,9bR)-7-((2-chloro-6-fluorobenzyl)oxy)-9b-((4-fluorophenyl)sulfonyl)-2,3,3a,4,5,9b-hexahydro-1H-benzo[e]indole-3-carbonyl)-4-methylcyclohexanecarboxylic acid] registered an EC50 of 0.017 µM.

For `O=C(O)[C@H]1CC[C@H](C(=O)N2CC[C@@]3(S(=O)(=O)c4ccc(F)cc4)c4ccc(OCc5c(Cl)cccc5Cl)cc4CC[C@@H]23)CC1` [Example 121, (1r,4r)-4-[(3aR,9bR)-7-[(2,6-dichlorophenyl)methoxy]-9b-(4-fluorobenzenesulfonyl)-1H,2H,3H,3aH,4H,5H,9bH-benzo[e]indole-3-carbonyl]cyclohexane-1-carboxylic acid], a half-maximal effect (EC50) was put at 0.0097 µM.

`CS(=O)(=O)N1CC[C@@]2(S(=O)(=O)c3ccccc3)c3ccc(OCc4c(Cl)cccc4Cl)cc3CC[C@@H]12` [Example 75, (3aR,9bR)-9b-(benzenesulfonyl)-7-[(2,6-dichlorophenyl)methoxy]-3-methanesulfonyl-1H,2H,3H,3aH,4H,5H,9bH-benzo[e]indole] had a 50% effective concentration (EC50) of 0.212 µM.

With `O=C(O)[C@H]1CC[C@H](C(=O)N2CC[C@@]3(S(=O)(=O)c4ccc(F)cc4)c4ccc(Oc5cccnc5F)cc4CC[C@@H]23)CC1` [Example 116, (1r,4r)-4-[(3aR,9bR)-9b-(4-fluorobenzenesulfonyl)-7-[(2-fluoropyridin-3-yl)oxy]-1H,2H,3H,3aH,4H,5H,9bH-benzo[e]indole-3-carbonyl]cyclohexane-1-carboxylic acid], a half-maximal response (EC50) required 0.051 µM.

As to `O=C(O)[C@H]1CC[C@H](C(=O)N2CC[C@@]3(S(=O)(=O)c4ccc(F)cc4)c4ccc(OCc5ccncc5Cl)cc4CC[C@@H]23)CC1` [Example 114, (1r,4r)-4-[(3aR,9bR)-7-[(3-chloropyridin-4-yl)methoxy]-9b-(4-fluorobenzenesulfonyl)-1H,2H,3H,3aH,4H,5H,9bH-benzo[e]indole-3-carbonyl]cyclohexane-1-carboxylic acid], the concentration for a half-maximal effect (EC50) stood at 0.053 µM.

On to `O=C(C1CCC(B(O)O)CC1)N1CC[C@@]2(S(=O)(=O)c3ccc(F)cc3)c3ccc(OCc4c(F)cccc4C(F)(F)F)cc3CC[C@@H]12` (stereo partly drawn) [Example 13, (4-((3aR,9bR)-7-((2-fluoro-6-(trifluoromethyl)benzyl)oxy)-9b-((4-fluorophenyl)sulfonyl)-2,3,3a,4,5,9b-hexahydro-1H-benzo[e]indole-3-carbonyl)cyclohexyl)boronic acid], for which it took 0.0015 µM to reach a half-maximal effect (EC50).

`CC1(O)CN(C(=O)N2CC[C@@]3(S(=O)(=O)c4ccccc4)c4ccc(OCc5c(Cl)cccc5Cl)cc4CC[C@@H]23)C1` [Example 83, 1-[(3aR,9bR)-9b-(benzenesulfonyl)-7-[(2,6-dichlorophenyl)methoxy]-1H,2H,3H,3aH,4H,5H,9bH-benzo[e]indole-3-carbonyl]-3-methylazetidin-3-ol] returned a 50% effective concentration (EC50) of 0.353 µM.

Turning to `CC(=O)N1CCC(C(=O)N2CC[C@@]3(S(=O)(=O)c4ccc(F)cc4)c4ccc(OCc5c(F)cccc5Cl)cc4CC[C@@H]23)CC1` [Example 167, 1-{4-[(3aR,9bR)-7-[(2-chloro-6-fluorophenyl)methoxy]-9b-(4-fluorobenzenesulfonyl)-1H,2H,3H,3aH,4H,5H,9bH-benzo[e]indole-3-carbonyl]piperidin-1-yl}ethan-1-one], it took 0.013 µM to reach a half-maximal effect (EC50).

In turn, `O=C(N1CC[C@@]2(S(=O)(=O)c3ccc(F)cc3)c3ccc(OCc4ccc(F)cc4Cl)cc3CC[C@@H]12)C1(O)CCS(=O)(=O)CC1` [Example 104, 4-[(3aR,9bR)-7-[(2-chloro-4-fluorophenyl)methoxy]-9b-(4-fluorobenzenesulfonyl)-1H,2H,3H,3aH,4H,5H,9bH-benzo[e]indole-3-carbonyl]-4-hydroxy-1λ^6-thiane-1,1-dione] yielded a 50% effective concentration (EC50) of 0.0056 µM.

Turning to `[2H]C([2H])(Oc1ccc2c(c1)CC[C@H]1N(C(=O)[C@H]3CC[C@H](C(=O)O)CC3)CC[C@@]21S(=O)(=O)c1ccc(F)cc1)c1c(F)cccc1Cl` [Example 222], a half-maximal response (EC50) required 0.0039 µM.

Turning to `CC(C)(O)C(=O)N1CC[C@@]2(S(=O)(=O)c3ccccc3)c3ccc(OCc4c(Cl)cccc4Cl)cc3CC[C@@H]12` [Example 72, 1-[(3aR,9bR)-9b-(benzenesulfonyl)-7-[(2,6-dichlorophenyl)methoxy]-1H,2H,3H,3aH,4H,5H,9bH-benzo[e]indol-3-yl]-2-hydroxy-2-methylpropan-1-one], the EC50 worked out at 0.199 µM.

`O=C(O)[C@H]1CC[C@H](C(=O)N2CC[C@@]3(S(=O)(=O)c4ccc(F)cc4)c4ccc(Oc5c(F)cccc5C(F)(F)F)cc4CC[C@@H]23)CC1` [Example 4, (1R,4r)-4-((3aR,9bR)-7-(2-fluoro-6-(trifluoromethyl)phenoxy)-9b-((4-fluorophenyl)sulfonyl)-2,3,3a,4,5,9b-hexahydro-1H-benzo[e]indole-3-carbonyl)cyclohexane-1-carboxylic acid] came in with a half-maximal effective concentration (EC50) of 0.01 µM.

In turn, `CC(=O)N1CCC(C(=O)N2CC[C@@]3(S(=O)(=O)c4ccc(F)cc4)c4ccc(OCc5ccc(F)cc5Cl)cc4CC[C@@H]23)CC1` [Example 207, 1-{4-[(3aR,9bR)-7-[(2-chloro-4-fluorophenyl)methoxy]-9b-(4-fluorobenzenesulfonyl)-1H,2H,3H,3aH,4H,5H,9bH-benzo[e]indole-3-carbonyl]piperidin-1-yl}ethan-1-one] had a half-maximal effective concentration (EC50) of 0.028 µM.

As for `CN1CCC(C(=O)N2CC[C@@]3(S(=O)(=O)c4ccc(F)cc4)c4ccc(OCc5c(Cl)cccc5Cl)cc4CC[C@@H]23)CC1` [Example 171, 4-[(3aR,9bR)-7-[(2,6-dichlorophenyl)methoxy]-9b-(4-fluorobenzenesulfonyl)-1H,2H,3H,3aH,4H,5H,9bH-benzo[e]indole-3-carbonyl]-1-methylpiperidine], a half-maximal effect (EC50) was put at 0.113 µM.

`CC(=O)N1CCC(C(=O)N2CC[C@@]3(S(=O)(=O)c4ccc(F)cc4)c4ccc(OCc5cc(F)c(F)cc5Cl)cc4CC[C@@H]23)CC1` [Example 219, 1-{4-[(3aR,9bR)-7-[(2-chloro-4,5-difluorophenyl)methoxy]-9b-(4-fluorobenzenesulfonyl)-1H,2H,3H,3aH,4H,5H,9bH-benzo[e]indole-3-carbonyl]piperidin-1-yl}ethan-1-one] gave an EC50 of 0.053 µM.

`O=C(C1CCS(=O)(=O)CC1)N1CC[C@@]2(S(=O)(=O)c3ccc(F)cc3)c3ccc(Oc4cccnc4F)cc3CC[C@@H]12` [Example 117, 4-[(3aR,9bR)-9b-(4-fluorobenzenesulfonyl)-7-[(2-fluoropyridin-3-yl)oxy]-1H,2H,3H,3aH,4H,5H,9bH-benzo[e]indole-3-carbonyl]-1λ^6-thiane-1,1-dione]: the EC50 was 0.0071 µM.

Compound `Cn1cc(C(=O)N2CC[C@@]3(S(=O)(=O)c4ccccc4)c4ccc(OCc5c(Cl)cccc5Cl)cc4CC[C@@H]23)cn1` [Example 100, 4-[(3aR,9bR)-9b-(benzenesulfonyl)-7-[(2,6-dichlorophenyl)methoxy]-1H,2H,3H,3aH,4H,5H,9bH-benzo[e]indole-3-carbonyl]-1-methyl-1H-pyrazole] showed an EC50 of 0.317 µM.

For the origin of these results see patent US20230295087A1, “AGONISTS OF ROR GAMMAt” (BRISTOL-MYERS SQUIBB COMPANY, priority 2019, published 2023).
